The source of these data is patent publication US12655116B2, “Substituted isophthalic acid diamides” (Bayer Aktiengesellschaft, priority 2020, dated 2026).

Each structure is given as a SMILES string.

In one experiment the test system is AMARE. Briefly: Pre-emergence herbicidal action against AMARE. Type of experiment: in vivo, Amaranthus retroflexus. The following applies: Amaranthus retroflexus, 504 h, 100% = plants have died, 0% = like control plants; for pest or weed control at 80 g/ha / pest or weed control at 20 g/ha: scored visually after 3 weeks vs untreated controls; for pest or weed control at 320 g/ha: scored visually after 3 weeks. Summed up: (§1)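 Visual rating at 3 weeks vs untreated pots; 0–100% scale, 100% = plants died. Treatment: aqueous WP/EC spray onto covering soil, 600–800 l/ha, 0.2% wetter, seeds in sandy loam.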

In a further experiment the test system is AVEFA. Briefly: Pre-emergence herbicidal action against AVEFA. In kind it is in vivo, Avena fatua. The following applies: Avena fatua, 504 h, pre-emergence; for pest or weed control at 320 g/ha / pest or weed control at 20 g/ha: scored visually after 3 weeks, 100% = plants have died, 0% = like control plants. Summed up: as §1
The test system of experiment [1] is DIGSA. Briefly: Pre-emergence herbicidal action against DIGSA. Type of experiment: in vivo, Digitaria sanguinalis. The conditions noted are these: Digitaria sanguinalis, 504 h; for pest or weed control at 80 g/ha: dosage 80 g/ha; for pest or weed control at 320 g/ha: dosage 320 g/ha; for pest or weed control at 20 g/ha: dosage 20 g/ha. Put shortly:
as §1

The subject of a further experiment is ABUTH. Briefly: Post-emergence herbicidal action against ABUTH. The conditions noted are these: Abutilon theophrasti, 504 h, visual assessment about 3 weeks after treatment vs untreated controls; for pest or weed control at 20 g/ha: dosage 20 g/ha; for pest or weed control at 80 g/ha: dosage 80 g/ha; for pest or weed control at 5 g/ha: dosage 5 g/ha. In kind it is in vivo, Abutilon theophrasti. Put shortly: (§2)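 Weeds in sandy loam soil received a post-emergence spray at the one-leaf stage. Compounds were applied as WP or EC in water, 600 to 800 l/ha, with 0.2% wetting agent. Activity in % was judged visually after roughly 3 weeks against untreated plants.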

For another experiment, the system named is STEME. Briefly: Post-emergence herbicidal action against STEME. Type of experiment: in vivo, Stellaria media. The conditions noted are these: Stellaria media, 504 h; for pest or weed control at 5 g/ha: dosage 5 g/ha. Summed up:
as §2

In experiment [2] the test system is DIGSA. Briefly: Post-emergence herbicidal action against DIGSA. The conditions noted are these: Digitaria sanguinalis, 504 h. Type of experiment: in vivo, Digitaria sanguinalis. Summed up: as §2
A further experiment concerns PHBPU. Briefly: Pre-emergence herbicidal action against PHBPU. In kind it is in vivo, Pharbitis purpurea. The conditions noted are these: Ipomoea purpurea, 504 h; for pest or weed control at 80 g/ha: dosage 80 g/ha. Put shortly: as §1

One may read the pest or weed control as the degree to which the test organism was suppressed or injured, in per cent. The low end stands for a weak effect, the high end for a strong effect. Turning to `CNC(=O)c1c(C(F)(F)F)ccc(C(=O)Nc2nnnn2C)c1SC` [Example 1-81], the pest or weed control at 80 g/ha in the experiment with AMARE is 100%; with AVEFA, 90%; with DIGSA [1] it was 100%; with ABUTH, 90%; with STEME it was 90%; with DIGSA [2], 90%. Also, the pest or weed control at 320 g/ha in the experiment with AMARE, in the experiment with AVEFA and in the experiment with DIGSA [1] was 100% in each case. Further, the pest or weed control at 20 g/ha with ABUTH came to 80%; with STEME, 90%; in the experiment with DIGSA [2] it was 80%.
On to `CCNC(=O)c1c(C(F)F)ccc(C(=O)Nc2nnnn2C)c1Cl` [Example 1-148], for which the pest or weed control at 80 g/ha with AMARE came out at 100%; with AVEFA, 100%; in the experiment on DIGSA [1] it was 100%; in the experiment with ABUTH, 90%; with STEME it was 90%; with DIGSA [2], 90%. Also, the pest or weed control at 320 g/ha in the experiment with AMARE, in the experiment on AVEFA and in the experiment with DIGSA [1] was 100% each time. The pest or weed control at 20 g/ha in the experiment with ABUTH, in the experiment on STEME and in the experiment on DIGSA [2] was 90% in each case.
Consider `CCc1c(C(=O)Nc2nnnn2C)ccc(C(F)(F)F)c1C(=O)NC1CC1` [Example 1-273], for which the pest or weed control at 20 g/ha in the experiment with AMARE turned out to be 100%; with DIGSA [1] it was 100%; with ABUTH, 90%; with STEME, 100%; with DIGSA [2] it was 90%. Moreover, the pest or weed control at 80 g/ha in the experiment with AMARE, in the experiment with AVEFA, in the experiment with PHBPU and in the experiment with DIGSA [1] was 100% in each case. Besides, the pest or weed control at 5 g/ha in the experiment on ABUTH, in the experiment on STEME and with DIGSA [2] was 90% each time.
In the case of `CCn1nnnc1NC(=O)c1ccc(C(F)(F)F)c(C(=O)NC2CC2)c1C` [Example 2-27], the pest or weed control at 20 g/ha was determined as 100% with AMARE; 80% with AVEFA; 80% in the experiment on PHBPU (dosage 20 g/ha); 100% in the experiment with DIGSA [1]; 100% in the experiment on ABUTH; 100% with STEME. In the experiment with DIGSA [2], this compound returned a pest or weed control at 20 g/ha of 100%. In addition, the pest or weed control at 80 g/ha was determined as 100% in the experiment with AMARE, 100% in the experiment on AVEFA, 90% in the experiment on PHBPU and 100% in the experiment with DIGSA [1]. Moreover, the pest or weed control at 5 g/ha in the experiment on ABUTH, in the experiment with STEME and in the experiment with DIGSA [2] was 100% in each case.
On to `CCn1nnnc1NC(=O)c1ccc(C(F)(F)F)c(C(=O)NC)c1SC` [Example 2-81], for which the pest or weed control at 80 g/ha is 100% with AMARE; 80% in the experiment with AVEFA; 100% in the experiment on DIGSA [1]; 90% in the experiment with ABUTH; 100% in the experiment with STEME; 90% with DIGSA [2]. The pest or weed control at 320 g/ha in the experiment with AMARE, in the experiment with AVEFA and in the experiment on DIGSA [1] was 100% throughout. Moreover, the pest or weed control at 20 g/ha in the experiment on ABUTH, in the experiment on STEME and in the experiment with DIGSA [2] was 90% throughout.
Consider `CCNC(=O)c1c(C(F)(F)F)ccc(C(=O)Nc2nnnn2CC)c1SC` [Example 2-82], for which the pest or weed control at 80 g/ha in the experiment on AMARE came out at 100%; with AVEFA, 100%; in the experiment with DIGSA [1], 100%; with ABUTH, 90%; in the experiment on STEME, 90%; with DIGSA [2], 90%. Further, the pest or weed control at 320 g/ha with AMARE, in the experiment with AVEFA and in the experiment on DIGSA [1] was 100% throughout. The results for the pest or weed control at 20 g/ha in the experiment with ABUTH, in the experiment on STEME and in the experiment on DIGSA [2] were 90%, 80% and 90%, respectively.
For the compound `CCNC(=O)c1c(C(F)F)ccc(C(=O)Nc2nnnn2CC)c1Cl` [Example 2-148], the pest or weed control at 80 g/ha in the experiment on AMARE was determined as 100%; with AVEFA it was 100%; in the experiment with DIGSA [1], 100%; in the experiment with ABUTH it was 90%; in the experiment with STEME it was 80%; in the experiment with DIGSA [2] it was 90%. For the same compound, the pest or weed control at 320 g/ha with AMARE, with AVEFA and in the experiment with DIGSA [1] was 100% in each case. Moreover, the pest or weed control at 20 g/ha came to 90% in the experiment on ABUTH, 80% with STEME and 90% with DIGSA [2].
Consider `CCn1nnnc1NC(=O)c1ccc(Cl)c(C(=O)NC2CC2)c1Cl` [Example 2-173], for which the pest or weed control at 20 g/ha was found to be 100% with AMARE; 90% with AVEFA; 100% with DIGSA [1]; 100% in the experiment on ABUTH; 100% with STEME; 80% with DIGSA [2]. The pest or weed control at 80 g/ha in the experiment with AMARE came out at 100%; with AVEFA, 100%; in the experiment with PHBPU it was 90%; with DIGSA [1], 100%. Moreover, the pest or weed control at 5 g/ha in the experiment with ABUTH amounted to 90%; with STEME it was 100%.
`CCn1nnnc1NC(=O)c1ccc(C(F)(F)F)c(C(=O)NC(C)=O)c1Cl` [Example 2-337]: the pest or weed control at 20 g/ha is 90% in the experiment on AMARE; 90% in the experiment on AVEFA; 90% in the experiment with DIGSA [1]; 100% in the experiment on ABUTH; 90% in the experiment with STEME. In addition, the pest or weed control at 80 g/ha came to 100% with AMARE; 100% in the experiment on AVEFA; 100% in the experiment with DIGSA [1]; 100% in the experiment with ABUTH; 90% with STEME; 90% in the experiment with DIGSA [2]. Also, the pest or weed control at 320 g/ha with AMARE stood at 100%; in the experiment with AVEFA, 100%; in the experiment on PHBPU (dosage 320 g/ha) it was 90%; in the experiment with DIGSA [1], 100%.
